Measurements reported in patent US10851083B2, “Benzoimidazoles as prolyl hydroxylase inhibitors” (Janssen Pharmaceutica NV, priority 2008, dated 2020).

Assays:
human PHD2181-417 = human PHD2181-417 (Homo sapiens (Human), UniProt Q9GZT9); experiment: PHD2 enzyme activity assay ([14C]-succinic acid production); assay type: biochemical; conditions: PHD2181-417 polypeptide, HIF-1α peptide 10 μM, [5-14C]-2-oxoglutaric acid; 30 min pre-incubation; tested 10 μM to 3 nM;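 note: reaction ran 10 min with compound in Tris pH 7.5 buffer with catalase, DTT and ascorbate, labelled succinate freed of leftover 2-oxoglutarate by DNP precipitation, then beta counted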
human PHD2181-417, sequence (Q9GZT9 181-417): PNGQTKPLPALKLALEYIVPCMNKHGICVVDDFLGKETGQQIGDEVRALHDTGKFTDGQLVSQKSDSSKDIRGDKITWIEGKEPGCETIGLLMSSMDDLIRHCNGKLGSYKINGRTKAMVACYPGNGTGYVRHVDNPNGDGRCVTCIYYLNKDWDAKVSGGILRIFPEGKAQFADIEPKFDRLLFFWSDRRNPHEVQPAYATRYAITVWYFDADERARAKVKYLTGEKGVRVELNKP

Hep-3B cells = experiment: Cellular assay: EPO secretion in Hep-3B cells; assay type: cell-based, human; design: EPO secretion, % of control compound: dose or concentration left out as unconfirmed; conditions: Homo sapiens, Hep3B, 24 h, EPO secretion as percentage of control compound 7-[(4-Chloro-phenyl)-(5-methyl-isoxazol-3-ylamino)-methyl]-quinolin-8-ol, read-out: Cellular % EPO Stimulation

Row | Compound | Enzyme pIC50 (human PHD2181-417) | EPO secretion, % of control compound (Hep-3B cells) [%]
1 | CCCNc1cc2nc(-n3cc(C(=O)O)cn3)[nH]c2cc1Cl [Example 131, 1-(6-Chloro-5-propylamino-1H-benzoimidazol-2-yl)-1H-pyrazole-4-carboxylic Acid] | 6.5 | 89
2 | O=C(O)c1cnn(-c2nc3cc(NCc4ccccc4)c(Cl)cc3[nH]2)c1 [Example 132, 1-(5-Benzylamino-6-chloro-1H-benzoimidazol-2-yl)-1H-pyrazole-4-carboxylic Acid] | 6.2 | 52.6
3 | O=C(O)c1cnn(-c2nc3cc(Nc4ccccc4)c(Cl)cc3[nH]2)c1 [Example 133, 1-(6-Chloro-5-phenylamino-1H-benzoimidazol-2-yl)-1H-pyrazole-4-carboxylic Acid] | 6.9 | 77
4 | O=C(O)c1cnn(-c2nc3cc(NCCN4CCOCC4)c(Cl)cc3[nH]2)c1 [Example 134, 1-[6-Chloro-5-(2-morpholin-4-yl-ethylamino)-1H-benzoimidazol-2-yl]-1H-pyrazole-4-carboxylic Acid] | 6.3 | 56.5
5 | O=C(O)c1cnn(-c2nc3cc(NS(=O)(=O)C4CC4)c(Cl)cc3[nH]2)c1 [Example 135, 1-(6-Chloro-5-cyclopropanesulfonylamino-1H-benzoimidazol-2-yl)-1H-pyrazole-4-carboxylic Acid] | 6.8 | 17
6 | CS(=O)(=O)Nc1cc2nc(-n3cc(C(=O)O)cn3)[nH]c2cc1Cl [Example 136, 1-(6-Chloro-5-methanesulfonylamino-1H-benzoimidazol-2-yl)-1H-pyrazole-4-carboxylic Acid] | 6.8 | 9
7 | CCS(=O)(=O)Nc1cc2nc(-n3cc(C(=O)O)cn3)[nH]c2cc1Cl [Example 137, 1-(6-Chloro-5-ethanesulfonylamino-1H-benzoimidazol-2-yl)-1H-pyrazole-4-carboxylic Acid] | 6.6 | 11
8 | O=C(O)c1cnn(-c2nc3cc(NS(=O)(=O)c4ccccc4)c(Cl)cc3[nH]2)c1 [Example 138, 1-(5-Benzenesulfonylamino-6-chloro-1H-benzoimidazol-2-yl)-1H-pyrazole-4-carboxylic Acid] | 6.8 | 19
9 | CC(=O)Nc1cc2nc(-n3cc(C(=O)O)cn3)[nH]c2cc1Cl [Example 139, 1-(5-Acetylamino-6-chloro-1H-benzoimidazol-2-yl)-1H-pyrazole-4-carboxylic Acid] | 6.3 | 24
10 | CCC(=O)Nc1cc2nc(-n3cc(C(=O)O)cn3)[nH]c2cc1Cl [Example 140, 1-(6-Chloro-5-propionylamino-1H-benzoimidazol-2-yl)-1H-pyrazole-4-carboxylic Acid] | 6.4 | 10
11 | O=C(O)c1cnn(-c2nc3cc(NC(=O)c4ccccc4)c(Cl)cc3[nH]2)c1 [Example 141, 1-(5-Benzoylamino-6-chloro-1H-benzoimidazol-2-yl)-1H-pyrazole-4-carboxylic Acid] | 6.6 | 33
12 | O=C(CN1CCOCC1)Nc1cc2nc(-n3cc(C(=O)O)cn3)[nH]c2cc1Cl [Example 142, 1-[6-Chloro-5-(2-morpholin-4-yl-acetylamino)-1H-benzoimidazol-2-yl]-1H-pyrazole-4-carboxylic Acid] | 6.4 | 17
13 | O=C(CN1CCCCC1)Nc1cc2nc(-n3cc(C(=O)O)cn3)[nH]c2cc1Cl [Example 143, 1-[6-Chloro-5-(2-piperidin-1-yl-acetylamino)-1H-benzoimidazol-2-yl]-1H-pyrazole-4-carboxylic Acid] | 6.2 | 20
14 | CN1CCN(CC(=O)Nc2cc3nc(-n4cc(C(=O)O)cn4)[nH]c3cc2Cl)CC1 [Example 144, 1-{6-Chloro-5-[2-(4-methyl-piperazin-1-yl)-acetylamino]-1H-benzoimidazol-2-yl}-1H-pyrazole-4-carboxylic Acid] | 6.4 | 16
15 | COc1ccc(Oc2cc3nc(-n4cc(C(=O)O)cn4)[nH]c3cc2Cl)cc1 [Example 145, 1-[6-Chloro-5-(4-methoxy-phenoxy)-1H-benzoimidazol-2-yl]-1H-pyrazole-4-carboxylic Acid] | 7.1 | 13.9
16 | O=C(O)c1cnn(-c2nc3cc(Oc4ccc(Cl)cc4F)c(Cl)cc3[nH]2)c1 [Example 146, 1-[6-Chloro-5-(4-chloro-2-fluoro-phenoxy)-1H-benzoimidazol-2-yl]-1H-pyrazole-4-carboxylic Acid] | 7.2 | 49.9

Row | Compound | Enzyme pIC50 (human PHD2181-417) | EPO secretion, % of control compound (Hep-3B cells) [%]
17 | O=C(O)c1cnn(-c2nc3cc(Oc4ccc(OC(F)(F)F)cc4)c(Cl)cc3[nH]2)c1 [Example 147, 1-[6-Chloro-5-(4-trifluoromethoxy-phenoxy)-1H-benzoimidazol-2-yl]-1H-pyrazole-4-carboxylic Acid] | 7.4 | 45.9
18 | O=C(O)c1cnn(-c2nc3cc(Oc4ccc(F)c(Cl)c4)c(Cl)cc3[nH]2)c1 [Example 148, 1-[6-Chloro-5-(3-chloro-4-fluoro-phenoxy)-1H-benzoimidazol-2-yl]-1H-pyrazole-4-carboxylic Acid] | 7.1 | 38.1
19 | CCSc1cc2nc(-n3cc(C(=O)O)cn3)[nH]c2cc1C(F)(F)F [Example 149, 1-(5-Ethylsulfanyl-6-trifluoromethyl-1H-benzoimidazol-2-yl)-1H-pyrazole-4-carboxylic Acid] | 7.3 | 57.8
20 | CCSc1cc2nc(-n3cc(C(=O)O)cn3)[nH]c2cc1OC(F)(F)F [Example 150, 1-(5-Ethylsulfanyl-6-trifluoromethoxy-1H-benzoimidazol-2-yl)-1H-pyrazole-4-carboxylic Acid] | 7.2 | 47.2
21 | CCSc1cc2nc(-n3cc(C(=O)O)cn3)[nH]c2cc1F [Example 151, 1-(5-Ethylsulfanyl-6-fluoro-1H-benzoimidazol-2-yl)-1H-pyrazole-4-carboxylic Acid] | 6.9 | 107
22 | CCS(=O)(=O)c1cc2nc(-n3cc(C(=O)O)cn3)[nH]c2cc1C(F)(F)F [Example 154, 1-(5-Ethylsulfonyl-6-trifluoromethyl-1H-benzoimidazol-2-yl)-1H-pyrazole-4-carboxylic Acid] | 7.6 | 53.8
23 | CCS(=O)(=O)c1cc2nc(-n3cc(C(=O)O)cn3)[nH]c2cc1OC(F)(F)F [Example 155, 1-(5-Ethylsulfonyl-6-trifluoromethoxy-1H-benzoimidazol-2-yl)-1H-pyrazole-4-carboxylic Acid] | 7.6 | 47.2
24 | CCS(=O)(=O)c1cc2nc(-n3cc(C(=O)O)cn3)[nH]c2cc1F [Example 156, 1-(5-Ethylsulfonyl-6-fluoro-1H-benzoimidazol-2-yl)-1H-pyrazole-4-carboxylic Acid] | 7.4 | 51.9
25 | O=C(O)c1cnn(-c2nc3cc(Sc4ccccc4)c(C(F)(F)F)cc3[nH]2)c1 [Example 159, 1-(5-Phenylsulfanyl-6-trifluoromethyl-1H-benzoimidazol-2-yl)-1H-pyrazole-4-carboxylic Acid] | 7.4 | 11
26 | COc1ccc(Sc2cc3nc(-n4cc(C(=O)O)cn4)[nH]c3cc2C(F)(F)F)cc1 [Example 160, 1-[5-(4-Methoxy-phenylsulfanyl)-6-trifluoromethyl-1H-benzoimidazol-2-yl]-1H-pyrazole-4-carboxylic Acid] | 7.5 | 36.1
27 | O=C(O)c1cnn(-c2nc3cc(S(=O)(=O)c4ccccc4)c(C(F)(F)F)cc3[nH]2)c1 [Example 161, 1-(5-Benzenesulfonyl-6-trifluoromethyl-1H-benzoimidazol-2-yl)-1H-pyrazole-4-carboxylic Acid] | 7.6 | 98.2
28 | COc1ccc(S(=O)(=O)c2cc3nc(-n4cc(C(=O)O)cn4)[nH]c3cc2C(F)(F)F)cc1 [Example 162, 1-[5-(4-Methoxy-benzenesulfonyl)-6-trifluoromethyl-1H-benzoimidazol-2-yl]-1H-pyrazole-4-carboxylic Acid] | 7.6 | 45.8
29 | O=C(O)c1cnn(-c2nc3cc(SCc4ccc(Cl)cc4)c(Cl)cc3[nH]2)c1 [Example 163, 1-[6-Chloro-5-(4-chloro-benzylsulfanyl)-1H-benzoimidazol-2-yl]-1H-pyrazole-4-carboxylic Acid] | 6.5 | 37
30 | O=C(O)c1cnn(-c2nc3cc(SCc4cccc(Cl)c4)c(Cl)cc3[nH]2)c1 [Example 164, 1-[6-Chloro-5-(3-chloro-benzylsulfanyl)-1H-benzoimidazol-2-yl]-1H-pyrazole-4-carboxylic Acid] | 6.6 | 27.4
31 | O=C(O)c1cnn(-c2nc3cc(SCC4CCCCC4)c(Cl)cc3[nH]2)c1 [Example 165, 1-(6-Chloro-5-cyclohexylmethylsulfanyl-1H-benzoimidazol-2-yl)-1H-pyrazole-4-carboxylic Acid] | 6.9 | 27.3
32 | O=C(O)c1cnn(-c2nc3cc(SCCN4CCOCC4)c(Cl)cc3[nH]2)c1 [Example 166, 1-[6-Chloro-5-(2-morpholin-4-yl-ethylsulfanyl)-1H-benzoimidazol-2-yl]-1H-pyrazole-4-carboxylic Acid] | 7 | 15.1
